These results are taken from the NIST ThermoML archive (doi:10.1016/j.fluid.2013.01.027).

Numbers after ± are expanded uncertainties.

The conditions of the data set: 298.15 K; 101.33 kPa; Liquid; Vibrating tube method.
`c1ccccc1` [benzene]: the mass density stood at 873.53 ± 0.14 kg/m3.
To `CCCCCCCCO` [octan-1-ol] belongs 823.27 ± 0.14 kg/m3.
As to `CCCCO` [butan-1-ol], the mass density is 805.78 ± 0.15 kg/m3.
For the compound `Cc1ccccc1` [toluene], the mass density stood at 863.67 ± 0.14 kg/m3.
The result for `c1ccsc1` [thiophene] reads 1058.48 ± 0.28 kg/m3; that for `CCCc1ccccc1` [propylbenzene], 858.62 ± 0.24 kg/m3; that for `CCCCCCO` [hexan-1-ol], 814.94 ± 0.15 kg/m3.
For the compound `CCCC[N+]1(C)CCCC1.FC(F)(F)C(F)(F)[P-](F)(F)(F)(C(F)(F)C(F)(F)F)C(F)(F)C(F)(F)F`, the mass density turned out to be 1582.63 ± 0.76 kg/m3.
To `CCCCCCCCCCCCO` [dodecan-1-ol] belongs 823.35 ± 0.24 kg/m3.
The result for `CCCCCCCCCCO` [decan-1-ol] reads 826.38 ± 0.14 kg/m3.
Take `CCc1ccccc1` [ethylbenzene]: the mass density is 862.97 ± 0.16 kg/m3.
